Values of other authors as cited in US20220054538A1, “ANTI-HELICOBACTER AGENT AND METHOD FOR THE USE THEREOF” (priority 2018, published 2022).

System: Helicobacter pylori culture
Conditions: in vitro

## calcium pectate
  effect on Helicobacter pylori culture: significant effect
